Data from patent publication US10473645B2, “Methods for identifying a receptor for a ligand and uses thereof” (UNIVERSITE DE GENEVE, priority 2014, dated 2019).

Experiments:
Olfr1377 = experiment: OR transcript level by RT-qPCR after in vivo odorant exposure; design: species or system mouse; key to olfr1377 candidate OR (RNAseq) confirmed by qPCR: The transcript downregulation of 21 out of the 26 olfactory receptor candidates obtained by RNAseq was confirmed by qPCR; false RNAseq positive candidates, namely OR candidates for which in fact mRNA was not downregulated following acetophenone exposure; conditions: for Olfr1377 mRNA level relative to unexposed controls: 5% odorant, 5 hours, in vivo, RT-qPCR
Protocol: In vivo exposure to odorant: Starting 48 h before experiments, mice were habituated to pure DMSO on a cotton ball. 200 μl were pipetted directly onto the cotton and placed in the cage, replacing any cotton that was already in the cage for nest-making purposes.
On the day of the experiment, mice receiving odorants were transferred to a different room, where they were exposed to a cotton ball on which 200 μl of odorant diluted in pure DMSO were deposited. Exposures started in the morning between 8 and 10 am (that is two hours after lights were on) and mice were killed and dissected between 1 and 3 pm. […] If a number of different odorants were tested in the same experiment, a different overpressurized room would always be used for each odorant to avoid odor cross-contamination.
After odorant exposure, mice were killed by cervical dislocation and immediately decapitated. The main olfactory epithelia (MOE), were harvested in their entirety and transferred to a tube containing 600 μl of lysis buffer and β-mercaptoethanol (RNAeasy kit, Qiagen, following the manufacturer protocol) and a 0.5 cm diameter steel ball, and then put on ice. Samples were then homogenized using a FastPrep®-24 instrument (MP Biomedicals) at 6 m/s for 30 s and left on ice. RNA extraction was performed on all samples in parallel using the Qiagen RNeasy Mini® kit following the manufacturer's instructions. Two DNase treatments were performed on all samples: first using the Qiagen RNase-Free DNase Set® and then using the Life Technologies Ambion DNase I® kit. RNA samples were then aliquoted and stored at −80° C.
RNA concentrations were determined using an Amersham Ultrospec® 3100 Pro spectrophotometer, and RNA quality was evaluated with an Agilent Technologies 2100 Bioanalyzer®. […]
qPCR Ct values were analyzed using an in-house developed Microsoft Excel® macro file. […] Ct values were converted to quantities relative to the maximum for each given gene. Selected reference genes were then analyzed for variance using the geNorm algorithm. […]

[1] = test system: Olfr171-expressing neurons; experiment: pS6 immunolabeling with OR in situ hybridization after odorant exposure; design: species or system mouse; conditions: 5% odorant, 60 minutes, in vivo
Protocol: (§1) In order to independently validate the identity of an acetophenone receptor obtained with the RNAseq approach, the potential colocalization following acetophenone exposure of a neuronal activity marker (the phosphorylated ribosomal protein S6 (pS6) (Knight et al., 2012, Cell, 151, 1126-1137) and specific olfactory receptors were evaluated. To this aim, in-situ hybridizations were performed on sections of olfactory tissue with probes targeting receptor mRNAs followed by immunolabeling of pS6. The probes used were directed against the transcripts of most of the ORs determined as responsive including Olfr983 transcripts (encoding a known acetophenone receptor), Olfr171 transcripts (encoding a known ethyl isobutyrate receptor), and Olfr145 transcripts, encoding a newly identified receptor by RNAseq. Before analysis, mice were exposed to either 5% acetophenone, 5% ethyl isobutyrate, or a negative control condition for 60 minutes. […] 66% (Olfr983) and 70% (Olfr145) of the neurons were positive for pS6 after acetophenone exposure, while only 11% of the neurons expressing Olfr171 were positive for pS6 after exposure to this compound.

OSNs expressing olfr1135 = experiment: as above; assay type: in vivo, mouse; design: key: y: neuronal activation (i.e. pS6 signal in a fraction of neuron exceeding 15% relative to controls); no pS6 signals; conditions: 5% acetophenone, 60 minutes
Protocol: as §1

OSNs expressing olfr1350 = experiment: as above; assay type: in vivo, mouse; design: key: y: neuronal activation (i.e. pS6 signal in a fraction of neuron exceeding 15% relative to controls); no pS6 signals; conditions: 5% acetophenone, 60 minutes
Protocol: as §1

OSNs expressing olfr378 = experiment: as above; assay type: in vivo, mouse; design: key: y: neuronal activation (i.e. pS6 signal in a fraction of neuron exceeding 15% relative to controls); no pS6 signals; conditions: 5% acetophenone, 60 minutes
Protocol: as §1

OSNs expressing olfr490 = experiment: as above; assay type: in vivo, mouse; design: key: y: neuronal activation (i.e. pS6 signal in a fraction of neuron exceeding 15% relative to controls); no pS6 signals; conditions: 5% acetophenone, 60 minutes
Protocol: as §1

OSNs expressing olfr750 = experiment: as above; assay type: in vivo, mouse; design: key: y: neuronal activation (i.e. pS6 signal in a fraction of neuron exceeding 15% relative to controls); no pS6 signals; conditions: 5% acetophenone, 60 minutes
Protocol: as §1

CC(=O)c1ccccc1 [acetophenone]
olfr1377 candidate OR (RNAseq) confirmed by qPCR (Olfr1377; 5% acetophenone exposure): y
Olfr1377 mRNA level relative to unexposed controls (Olfr1377): decrease
Olfr1377 mRNA level relative to unexposed controls (Olfr1377; listed as Acetophenone): downregulates
fraction of Olfr171-expressing neurons positive for pS6 [1]: 11%
olfr1135 ps6 positive (OSNs expressing olfr1135): n
olfr1350 ps6 positive (OSNs expressing olfr1350): n
olfr378 ps6 positive (OSNs expressing olfr378): n
olfr490 ps6 positive (OSNs expressing olfr490): n
olfr750 ps6 positive (OSNs expressing olfr750): n
